# Measurements: patent US20150307938A1, “METHOD TO IDENTIFY A NOVEL CLASS OF IMMUNOLOGIC ADJUVANTS” (Lancell, L.L.C., priority 2011, published 2015)
# Test system: skin
# Assay: Affymetrix microarray of skin, DBP-4 hr and analogs vs. untreated; gene selection by log-2 fold change, Wilcoxon, Kendall tau (Tables 8, 9)
# Format: in vivo, mouse
# Settings: DBP-4 hr vs. untreated
smiles,measurement,setting,value
"CCCCOC(=O)c1ccccc1C(=O)OCCCC [DBP, dibutylphthalate]",NA (AFFX-BioC-3_at) Wilcoxon,,Yes
same,NA (AFFX-BioC-5_at) Wilcoxon,,Yes
same,NA (AFFX-BioDn-3_at) Wilcoxon,,Yes
same,NA (AFFX-BioDn-5_at) Wilcoxon,,Yes
same,NA (AFFX-ThrX-5_at) Wilcoxon,,Yes
same,Nfil3 (NM_017373_at) Wilcoxon,,Yes
same,Nfkbia (NM_010907_at) Wilcoxon,,No
same,Nfkbiz (NM_030612_at) Wilcoxon,,Yes
same,Nr4a2 (NM_013613_at) Wilcoxon,,Yes
same,Otud7a (NM_130880_at) Wilcoxon,,No
same,Pde4b (NM_019840_at) Wilcoxon,,Yes
same,Pdk4 (NM_013743_at) Wilcoxon,,Yes
same,Plaur (NM_011113_at) Wilcoxon,,No
same,Plek (NM_019549_at) Wilcoxon,,Yes
same,Plscr1 (NM_011636_at) Wilcoxon,,No
same,Pmaip1 (NM_021451_at) Wilcoxon,,Yes
same,Prss22 (NM_133731_at) Wilcoxon,,Yes
same,Ptges (NM_022415_at) Wilcoxon,,No
same,Pyy (NM_145435_at) Wilcoxon,,Yes
same,Rab20 (NM_011227_at) Wilcoxon,,Yes
same,Ramp3 (NM_019511_at) Wilcoxon,,No
same,Rgs1 (NM_015811_at) Wilcoxon,,Yes
same,Rnf19b (NM_029219_at) Wilcoxon,,No
same,Saa3 (NM_011315_at) Wilcoxon,,Yes
same,Slc5a1 (NM_019810_at) Wilcoxon,,Yes
same,Slc7a5 (NM_011404_at) Wilcoxon,,Yes
same,Slc10a6 (NM_029415_at) Wilcoxon,,No
same,Slc15a3 (NM_023044_at) Wilcoxon,,No
same,Slc25a25 (NM_146118_at) Wilcoxon,,No
same,Slc34a2 (NM_011402_at) Wilcoxon,,Yes
same,Slc39a8 (NM_026228_at) Wilcoxon,,Yes
same,Slfn2 (NM_011408_at) Wilcoxon,,Yes
same,Slfn4 (NM_011410_at) Wilcoxon,,Yes
same,Slpi (NM_011414_at) Wilcoxon,,Yes
same,Smox (NM_145533_at) Wilcoxon,,Yes
same,Stfa3 (NM_025288_at) Wilcoxon,,Yes
same,Timp1 (NM_011593_at) Wilcoxon,,Yes
same,Tlr2 (NM_011905_at) Wilcoxon,,Yes
same,Tnf (NM_013693_at) Wilcoxon,,Yes
same,Tnfrsf12a (NM_013749_at) Wilcoxon,,Yes
same,Tslp (NM_021367_at) Wilcoxon,,Yes
same,Tslp (NR_033206_at) Wilcoxon,,Yes
same,Tubb6 (NM_026473_at) Wilcoxon,,Yes
same,Uap1 (NM_133806_at) Wilcoxon,,No
same,Zc3h12a (NM_153159_at) Wilcoxon,,Yes
same,Zfp36 (NM_011756_at) Wilcoxon,,Yes
same,Zfp593 (NM_024215_at) Wilcoxon,,No
same,1110032A04Rik NM_133675_at Wilcoxon,rank-sum p-value,Yes
same,2510002D24Rik NM_001033164_at Wilcoxon,rank-sum p-value,No
same,2510009E07Rik NM_001001881_at Wilcoxon,rank-sum p-value,No
same,2610528A11Rik XR_105647_at Wilcoxon,rank-sum p-value,Yes
same,1500015010Rik NM_024283_at Wilcoxon,rank-sum p-value,Yes
same,3110079015Rik NM_028473_at Wilcoxon,rank-sum p-value,Yes
same,A2m NM_175628_at Wilcoxon,rank-sum p-value,Yes
same,AY026312 NM_133359_at Wilcoxon,rank-sum p-value,Yes
same,Actn2 NM_033268_at Wilcoxon,rank-sum p-value,Yes
same,Akr1c14 NM_134072_at Wilcoxon,rank-sum p-value,Yes
same,Aldh7a1 NM_001127338_at Wilcoxon,rank-sum p-value,No
same,Aox4 NM_023631_at Wilcoxon,rank-sum p-value,Yes
same,Asb5 NM_029569_at Wilcoxon,rank-sum p-value,Yes
same,Atp2a2 NM_001110140_at Wilcoxon,rank-sum p-value,No
same,Atp13a3 NM_001128094_at Wilcoxon,rank-sum p-value,No
same,Atp13a3 NM_001128096_at Wilcoxon,rank-sum p-value,No
same,Bcr NM_001081412_at Wilcoxon,rank-sum p-value,No
same,Camk2g NM_001039138_at Wilcoxon,rank-sum p-value,No
same,Camk2g NM_001039139_at Wilcoxon,rank-sum p-value,No
same,Ccl8 NM_021443_at Wilcoxon,rank-sum p-value,Yes
same,Ccl24 NM_019577_at Wilcoxon,rank-sum p-value,Yes
same,Cd209d NM_130904_at Wilcoxon,rank-sum p-value,Yes
same,Ckmt2 NM_198415_at Wilcoxon,rank-sum p-value,Yes
same,Cldn8 NM_018778_at Wilcoxon,rank-sum p-value,Yes
same,Clec4n NM_020001_at Wilcoxon,rank-sum p-value,Yes
same,Cmya5 NM_023821_at Wilcoxon,rank-sum p-value,Yes
same,Comp NM_016685_at Wilcoxon,rank-sum p-value,Yes
same,Corin NM_016869_at Wilcoxon,rank-sum p-value,Yes
same,Crispld1 NM_031402_at Wilcoxon,rank-sum p-value,Yes
same,Cxcl10 NM_021274_at Wilcoxon,rank-sum p-value,Yes
same,Cxcr6 NM_030712_at Wilcoxon,rank-sum p-value,Yes
same,Cyth1 NM_001112699_at Wilcoxon,rank-sum p-value,No
same,Cyth1 NM_001112700_at Wilcoxon,rank-sum p-value,No
same,Dbp NM_016974_at Wilcoxon,rank-sum p-value,Yes
same,Deptor NM_001037937_at Wilcoxon,rank-sum p-value,No
same,Dlgap4 NM_001042487_at Wilcoxon,rank-sum p-value,No
same,Dlgap4 NM_001042488_at Wilcoxon,rank-sum p-value,No
same,Ear5 NM_019398_at Wilcoxon,rank-sum p-value,Yes
same,Fam134b NM_001034851_at Wilcoxon,rank-sum p-value,No
same,Gcdh NM_001044744_at Wilcoxon,rank-sum p-value,No
same,Gm10228 XM_001474297_at Wilcoxon,rank-sum p-value,Yes
same,Gm10228 XM_003086004_at Wilcoxon,rank-sum p-value,Yes
